In patent US6525001B1, “Substituted pyrimidine and pyridine herbicides” (Mid-American Commercialization Corporation, priority 1997, dated 2003):

Assays:
Type in all cases: in vivo
rape (Brassica napus) = experiment: Test B pre-/postemergence; design: key: 0 is no effect; 10 is complete control
From the text: (§1) Seeds of bedstraw (Galium aparine), blackgrass (Alopecurus myosuroides), broadleaf signalgrass (Brachiaria decumbens), cocklebur (Xanthium strumarium), corn (Zea mays), crabgrass (Digitaria sanguinalis), giant foxtail (Setaria faberii), lambsquarters (Chenopodium album), momingglory (Ipomoea hederacea), pigweed (Amaranthus retroflexus), rape (Brassica napus), soybean (Glycine max), sugar beet (Beta vulgaris), velvetleaf (Abutilon theophrasti), wheat (Triticum aestivum), wild oat (Avena fatua) and purple nutsedge (Cyperus rotundus) tubers were planted and treated preemergence with test chemicals formulated in a non-phytotoxic solvent mixture which included a surfactant.
(§2) At the same time, these crop and weed species were also treated with postemergence applications of test chemicals formulated in the same manner. Plants ranged in height from 2 to 18 cm (1- to 4-leaf stage) for postemergence treatments. Plant species in the flood test consisted of rice (Oryza sativa), smallflower flatsedge (Cyperus difformis), duck salad (Heteranthera limosa) and bamyardgrass (Echinochloa crus-galli) grown to the 2-leaf stage for testing. Treated plants and controls were maintained in a greenhouse for twelve to sixteen days, after which all species were compared to controls and visually evaluated. Plant response ratings, summarized in Table B, are based on a scale of 0 to 10 where 0 is no effect and 10 is complete control. A dash (−) response means no test result.

soybean (Glycine max) = experiment: Test B pre-/postemergence; design: key: 0 is no effect; 10 is complete control
From the text: as §1, §2

[1] = tested on: momingglory (Ipomoea hederacea); experiment: Test B pre-/postemergence; design: key: 0 is no effect; 10 is complete control
From the text: as §1, §2

[2] = tested on: giant foxtail (Setaria faberii); experiment: Test B pre-/postemergence; design: key: 0 is no effect; 10 is complete control
From the text: as §1, §2

corn (Zea mays) = experiment: Test B pre-/postemergence; design: key: 0 is no effect; 10 is complete control; settings: for Corn plant response rating: Preemergence
From the text: as §1, §2

[3] = tested on: crabgrass (Digitaria sanguinalis); experiment: Test B pre-/postemergence; design: key: 0 is no effect; 10 is complete control; settings: for Crabgrass plant response rating: Preemergence
From the text: as §1, §2

[4] = tested on: cocklebur (Xanthium strumarium); experiment: Test B pre-/postemergence; design: key: 0 is no effect; 10 is complete control; settings: for Cocklebur plant response rating: Preemergence
From the text: as §1, §2

[5] = tested on: velvetleaf (Abutilon theophrasti); experiment: Test B pre-/postemergence; design: key: 0 is no effect; 10 is complete control
From the text: as §1, §2

[6] = tested on: blackgrass (Alopecurus myosuroides); experiment: Test B pre-/postemergence; design: key: 0 is no effect; 10 is complete control; settings: for Blackgrass plant response rating: Preemergence
From the text: as §1, §2

[7] = tested on: sugar beet (Beta vulgaris); experiment: Test B pre-/postemergence; design: key: 0 is no effect; 10 is complete control
From the text: as §1, §2

[8] = tested on: bedstraw (Galium aparine); experiment: Test B pre-/postemergence; design: key: 0 is no effect; 10 is complete control; settings: for Bedstraw plant response rating: Preemergence
From the text: as §1, §2

wild oat (Avena fatua) = experiment: Test B pre-/postemergence; design: key: 0 is no effect; 10 is complete control
From the text: as §1, §2

[9] = tested on: wheat (Triticum aestivum); experiment: Test B pre-/postemergence; design: key: 0 is no effect; 10 is complete control
From the text: as §1, §2

[10] = tested on: broadleaf signalgrass (Brachiaria decumbens); experiment: Test B pre-/postemergence; design: key: 0 is no effect; 10 is complete control; settings: for B. signalgrass plant response rating: Preemergence
From the text: as §1, §2

[11] = tested on: pigweed (Amaranthus retroflexus); experiment: Test B pre-/postemergence; design: key: 0 is no effect; 10 is complete control
From the text: as §1, §2

[12] = tested on: duck salad (Heteranthera limosa); experiment: Test B flood test
Protocol: as §2

[13] = tested on: bamyardgrass (Echinochloa crus-galli); experiment: Test B flood test
Protocol: as §2

[14] = tested on: smallflower flatsedge (Cyperus difformis); experiment: Test B flood test
Protocol: as §2

rice (Oryza sativa) = experiment: Test B flood test
Protocol: as §2

[15] = Rate 250 g/ha, Postemergence (so in the source)
[16] = Rate 62 g/ha, Postemergence (flood test)
[17] = Rate 125 g/ha, Postemergence, flood test
[18] = Rate 250 g/ha, Postemergence (flood test species)
[19] = Rate 125 g/ha, Postemergence section (flood test species)

## CCc1cnc(-n2ccc(C(F)(F)F)n2)nc1Cc1cccc(OC(F)(F)F)c1 [Compound 47]
Rape (Brassica napus); Rate 62 g/ha, Postemergence
  Plant response rating, Rape: 10
Rape (Brassica napus); Rate 62 g/ha, Preemergence
  Rape plant response rating: 7
Rape (Brassica napus); Rate 125 g/ha, Postemergence
  Rape plant response rating: 10
Rape (Brassica napus); Rate 125 g/ha, Preemergence
  Rape plant response rating: 9
Rape (Brassica napus); Rate 250 g/ha, Postemergence
  Plant response rating, Rape: 10
Rape (Brassica napus); [15]
  Plant response rating, Rape: 10
Soybean (Glycine max); Rate 62 g/ha, Postemergence
  Plant response rating, Soybean: 8
Soybean (Glycine max); Rate 62 g/ha, Preemergence
  Soybean plant response rating: 0
Soybean (Glycine max); Rate 125 g/ha, Postemergence
  Soybean plant response rating: 8
Soybean (Glycine max); Rate 125 g/ha, Preemergence
  Plant response rating, Soybean: 0
Soybean (Glycine max); Rate 250 g/ha, Postemergence
  Plant response rating, Soybean: 7
Soybean (Glycine max); [15]
  Plant response rating, Soybean: 2
[1]; Rate 62 g/ha, Postemergence
  Plant response rating, Morningglory: 6
[1]; Rate 62 g/ha, Preemergence
  Morningglory plant response rating: 1
[1]; Rate 125 g/ha, Postemergence
  Morningglory plant response rating: 6
[1]; Rate 125 g/ha, Preemergence
  Morningglory plant response rating: 6
[1]; Rate 250 g/ha, Postemergence
  Plant response rating, Morningglory: 8
[1]; [15]
  Plant response rating, Morningglory: 6
[2]; Rate 62 g/ha, Postemergence
  Plant response rating, Giant foxtail: 4
[2]; Rate 62 g/ha, Preemergence
  Giant foxtail plant response rating: 9
[2]; Rate 125 g/ha, Postemergence
  Giant foxtail plant response rating: 4
[2]; Rate 125 g/ha, Preemergence
  Giant foxtail plant response rating: 10
[2]; Rate 250 g/ha, Postemergence
  Plant response rating, Giant foxtail: 7
[2]; [15]
  Plant response rating, Giant foxtail: 10
Corn (Zea mays); Rate 62 g/ha, Postemergence
  Plant response rating, Corn: 3
Corn (Zea mays); Rate 62 g/ha
  Corn plant response rating: 1
Corn (Zea mays); Rate 125 g/ha, Postemergence
  Plant response rating, Corn: 3
Corn (Zea mays); Rate 125 g/ha
  Corn plant response rating: 2
Corn (Zea mays); Rate 250 g/ha, Postemergence
  Plant response rating, Corn: 4
Corn (Zea mays); [15]
  Plant response rating, Corn: 3
[3]; Rate 62 g/ha, Postemergence
  Plant response rating, Crabgrass: 7
[3]; Rate 62 g/ha
  Crabgrass plant response rating: 8
[3]; Rate 125 g/ha, Postemergence
  Plant response rating, Crabgrass: 9
[3]; Rate 125 g/ha
  Crabgrass plant response rating: 10
[3]; Rate 250 g/ha, Postemergence
  Plant response rating, Crabgrass: 10
[3]; [15]
  Plant response rating, Crabgrass: 10
[4]; Rate 62 g/ha, Postemergence
  Plant response rating, Cocklebur: 7
[4]; Rate 62 g/ha
  Cocklebur plant response rating: 1
[4]; Rate 125 g/ha, Postemergence
  Plant response rating, Cocklebur: 8
[4]; Rate 125 g/ha
  Cocklebur plant response rating: 2
[4]; Rate 250 g/ha, Postemergence
  Plant response rating, Cocklebur: 8
[4]; [15]
  Plant response rating, Cocklebur: 2
[5]; Rate 62 g/ha, Postemergence
  Plant response rating, Velvetleaf: 7
[5]; Rate 62 g/ha, Preemergence
  Velvetleaf plant response rating: 8
[5]; Rate 125 g/ha, Postemergence
  Velvetleaf plant response rating: 7
[5]; Rate 125 g/ha, Preemergence
  Plant response rating, Velvetleaf: 10
[5]; Rate 250 g/ha, Postemergence
  Plant response rating, Velvetleaf: 8
[5]; [15]
  Plant response rating, Velvetleaf: 10
[6]; Rate 62 g/ha, Postemergence
  Plant response rating, Blackgrass: 5
[6]; Rate 62 g/ha
  Blackgrass plant response rating: 3
[6]; Rate 125 g/ha, Postemergence
  Plant response rating, Blackgrass: 5
[6]; Rate 125 g/ha
  Blackgrass plant response rating: 8
[6]; Rate 250 g/ha, Postemergence
  Plant response rating, Blackgrass: 6
[6]; [15]
  Plant response rating, Blackgrass: 10
[7]; Rate 62 g/ha, Postemergence
  Plant response rating, Sugarbeets: 9
[7]; Rate 62 g/ha, Preemergence
  Sugarbeets plant response rating: 7
[7]; Rate 125 g/ha, Postemergence
  Sugarbeets plant response rating: 9
[7]; Rate 125 g/ha, Preemergence
  Plant response rating, Sugarbeets: 7
[7]; Rate 250 g/ha, Postemergence
  Plant response rating, Sugarbeets: 9
[7]; [15]
  Plant response rating, Sugarbeets: 9
[8]; Rate 62 g/ha, Postemergence
  Plant response rating, Bedstraw: 9
[8]; Rate 62 g/ha
  Bedstraw plant response rating: 7
[8]; Rate 125 g/ha
  Bedstraw plant response rating: 8
[8]; [15]
  Plant response rating, Bedstraw: 8
Wild oat (Avena fatua); Rate 62 g/ha, Postemergence
  Wild oats plant response rating: 6
Wild oat (Avena fatua); Rate 62 g/ha, Preemergence
  Wild oats plant response rating: 9
Wild oat (Avena fatua); Rate 125 g/ha, Postemergence
  Wild oats plant response rating: 8
Wild oat (Avena fatua); Rate 125 g/ha, Preemergence
  Plant response rating, Wild oats: 9
Wild oat (Avena fatua); Rate 250 g/ha, Postemergence
  Plant response rating, Wild oats: 9
Wild oat (Avena fatua); [15]
  Plant response rating, Wild oats: 10
[9]; Rate 62 g/ha, Postemergence
  Wheat plant response rating: 5
[9]; Rate 62 g/ha, Preemergence
  Wheat plant response rating: 2
[9]; Rate 125 g/ha, Postemergence
  Wheat plant response rating: 5
[9]; Rate 125 g/ha, Preemergence
  Plant response rating, Wheat: 3
[9]; Rate 250 g/ha, Postemergence
  Plant response rating, Wheat: 6
[9]; [15]
  Plant response rating, Wheat: 5
[10]; Rate 62 g/ha, Postemergence
  Plant response rating, B. signalgrass: 4
[10]; Rate 62 g/ha
  B. signalgrass plant response rating: 5
[10]; Rate 125 g/ha, Postemergence
  Plant response rating, B. signalgrass: 5
[10]; Rate 125 g/ha
  B. signalgrass plant response rating: 6
[10]; Rate 250 g/ha, Postemergence
  Plant response rating, B. signalgrass: 8
[10]; Rate 250 g/ha, Postemergence as printed in head r139 (second section for compounds 26-50)
  Plant response rating, B. signalgrass: 9
[11]; Rate 62 g/ha, Postemergence
  Plant response rating, Redroot pigweed: 9
[11]; Rate 62 g/ha, Preemergence
  Redroot pigweed plant response rating: 8
[11]; Rate 125 g/ha, Postemergence
  Redroot pigweed plant response rating: 9
[11]; Rate 125 g/ha, Preemergence
  Redroot pigweed plant response rating: 9
[11]; Rate 250 g/ha, Postemergence
  Plant response rating, Redroot pigweed: 9
[11]; [15]
  Plant response rating, Redroot pigweed: 10
[12]; [16]
  Plant response rating, Ducksalad: 3
[12]; [17]
  Plant response rating, Ducksalad: 3
[12]; [18]
  Plant response rating, Ducksalad: 7
[13]; [16]
  Plant response rating, Barnyardgrass: 2
[13]; [17]
  Plant response rating, Barnyardgrass: 3
[13]; [18]
  Plant response rating, Barnyardgrass: 6
[14]; [16]
  Plant response rating, S. Flatsedge: 7
[14]; [19]
  S. Flatsedge plant response rating: 7
[14]; [18]
  Plant response rating, S. Flatsedge: 9
Rice (Oryza sativa); [16]
  Plant response rating, Rice: 3
Rice (Oryza sativa); [19]
  Rice plant response rating: 5
Rice (Oryza sativa); [18]
  Plant response rating, Rice: 6
